Like-named read-outs stand apart in the source and are kept apart here.
Tests used:
[1] = system: 3D7-MR4 trophozoite parasite-infected RBCs; assay: Metabolomic profiling (hydrophilic metabolite changes, UHPLC-MS); type: cell-based, Plasmodium falciparum
[2] = system: Plasmodium falciparum 3D7-A10 parasites; assay: Stage specificity assay (8-h exposure of synchronized stages, IC50^8h); type: cell-based; details: for IC50: Plasmodium falciparum
[3] = system: 3D7-A10 or Dd2-B2 parasites; details: 3 × IC50^72h drug concentrations; ref Phillips et al., 2015; cited from earlier work
[4] = system: 3D7-MR4 trophozoite parasite-infected RBCs; details: 10 × IC50^72h; ref Allman et al., 2016; cited from earlier work
[5] = system: asynchronous 3D7-A10 parasite cultures; assay: Standard 72-h exposure asexual blood stage susceptibility assay (IC50^72h); type: cell-based, Plasmodium falciparum; details: Plasmodium falciparum, 3D7, 72 h, read-out: Overall (72hr assay) Mean IC50 (IC50^72h)

Cc1cc(Nc2ccc(S(F)(F)(F)(F)F)cc2)n2nc(C(C)(F)F)nc2n1 [DSM265, reference compound]
Log2(fold changes) 3-phosphoglycerate ([1]; metabolite 3-phosphoglycerate, log2 fold change): 0.0300
Log2(fold changes) 4-Pyridoxic acid ([1]; metabolite 4-Pyridoxic acid, log2 fold change): -1.9900
Log2(fold changes) 4-aminobutyrate ([1]; metabolite 4-aminobutyrate, log2 fold change): 0.1300
Log2(fold changes) 4-phosphopantetheine ([1]; metabolite 4-phosphopantetheine, log2 fold change): 0.0000
Log2(fold changes) 4-phosphopantothenate ([1]; metabolite 4-phosphopantothenate, log2 fold change): -0.1800
Log2(fold changes) 5-aminopentanoic acid ([1]; metabolite 5-aminopentanoic acid, log2 fold change): 0.0000
Log2(fold changes) 5-methyl-THF ([1]; metabolite 5-methyl-THF, log2 fold change): 0.0000
Log2(fold changes) 5-phosphoribosyl-1-pyrophosphate ([1]; metabolite 5-phosphoribosyl-1-pyrophosphate, log2 fold change): -0.0200
Log2(fold changes) 6-phospho-D-gluconate ([1]; metabolite 6-phospho-D-gluconate, log2 fold change): 0.2100
Log2(fold change) HVDD ([1]; metabolite HVDD): 0.0000
Log2(fold change) Hydroxyisocaproic acid ([1]; metabolite Hydroxyisocaproic acid): 0.0000
Log2(fold change) IDP ([1]; metabolite IDP): 0.0000
Log2(fold change) IMP ([1]; metabolite IMP): 0.1000
Log2(fold change) Inositol ([1]; metabolite Inositol): 0.0000
Log2(fold change) Isopentyl-PP ([1]; metabolite Isopentyl-PP): 0.0000
Log2(fold change) L-arginino-succinate ([1]; metabolite L-arginino-succinate): 0.0000
Log2(fold change) LD ([1]; metabolite LD): 0.0100
Log2(fold change) Myristoyl/tetradecanoyl-CoA ([1]; metabolite Myristoyl/tetradecanoyl-CoA): 0.0000
Log2(fold change) N-Acetyl-L-alanine ([1]; metabolite N-Acetyl-L-alanine): -0.3700
Log2(fold change) N-acetyl-L-ornithine ([1]; metabolite N-acetyl-L-ornithine): -0.2000
Log2(fold change) N-acetyl-glucosamine-1/6-phosphate ([1]; metabolite N-acetyl-glucosamine-1/6-phosphate): -0.7400
Log2(fold change) N-acetyl-glutamate ([1]; metabolite N-acetyl-glutamate): 0.0900
Log2(fold change) N-acetyl-glutamine ([1]; metabolite N-acetyl-glutamine): -0.1600
Log2(fold change) N-carbamoyl-L-aspartate ([1]; metabolite N-carbamoyl-L-aspartate): 4.8500
Log2(fold change) NAD+ ([1]; metabolite NAD+): 0.1500
Log2(fold change) NADH ([1]; metabolite NADH): 0.7500
Log2(fold change) NADP+ ([1]; metabolite NADP+): 0.0800
Log2(fold change) NADPH ([1]; metabolite NADPH): 0.6400
Log2(fold change) O-acetyl-L-serine ([1]; metabolite O-acetyl-L-serine): 0.0000
Log2(fold change) Octoluse 8/1P ([1]; metabolite Octoluse 8/1P): 0.2400
Log2(fold change) Octoluse Bisphosphate ([1]; metabolite Octoluse Bisphosphate): -0.2600
Log2(fold change) PD ([1]; metabolite PD): -0.0800
Log2(fold change) PE ([1]; metabolite PE): -0.3900
Log2(fold change) PEE ([1]; metabolite PEE): -0.4300
Log2(fold change) PEEK ([1]; metabolite PEEK): -0.3200
Log2(fold change) PVNF ([1]; metabolite PVNF): -0.8600
Log2(fold change) Pyroglutamic acid ([1]; metabolite Pyroglutamic acid): 0.0900
Log2(fold change) Pyrophosphate ([1]; metabolite Pyrophosphate): 0.2500
Log2(fold change) Ribose-5-phosphate ([1]; metabolite Ribose-5-phosphate): 0.0000
Log2(fold change) S-adenosyl-L-homocysteine ([1]; metabolite S-adenosyl-L-homocysteine): -1.4900
Log2(fold change) S-adenosyl-L-methioninamine ([1]; metabolite S-adenosyl-L-methioninamine): 0.0000
Log2(fold change) S-adenosyl-L-methionine ([1]; metabolite S-adenosyl-L-methionine): 0.0000
Log2(fold change) S-methyl-5'-thioadenosine ([1]; metabolite S-methyl-5'-thioadenosine): -0.0400
Log2(fold change) SD ([1]; metabolite SD): -0.2500
Log2(fold change) SDL ([1]; metabolite SDL): 0.0000
Log2(fold change) SID ([1]; metabolite SID): 0.0000
Log2(fold change) Sedoheptulose bisphosphate ([1]; metabolite Sedoheptulose bisphosphate): 0.0300
Log2(fold change) Thiamine pyrophosphate ([1]; metabolite Thiamine pyrophosphate): 0.0000
Log2(fold changes) UDP-D-glucose ([1]; metabolite UDP-D-glucose, log2 fold change): 0.0500
Log2(fold changes) UDP-D-glucuronate ([1]; metabolite UDP-D-glucuronate, log2 fold change): 0.0200
Log2(fold changes) UDP-N-acetyl-glucosamine ([1]; metabolite UDP-N-acetyl-glucosamine, log2 fold change): -0.1200
Log2(fold changes) UDP ([1]; metabolite UDP, log2 fold change): -1.5400
Log2(fold changes) UMP ([1]; metabolite UMP, log2 fold change): -0.9900
Log2(fold changes) UTP ([1]; metabolite UTP, log2 fold change): -1.4400
Log2(fold change) hydroxyphenylpyruvate ([1]; metabolite hydroxyphenylpyruvate): 0.0000
Log2(fold change) hydroxyproline/Aminolevulinate ([1]; metabolite hydroxyproline/Aminolevulinate): 0.0000
Log2(fold change) hypoxanthine ([1]; metabolite hypoxanthine): 0.3100
Log2(fold change) indole ([1]; metabolite indole): 0.1900
Log2(fold change) inosine ([1]; metabolite inosine): 0.2300
Log2(fold change) isoleucine ([1]; metabolite isoleucine): 0.0000
Log2(fold change) lactate ([1]; metabolite lactate): -0.1200
Log2(fold change) leucine ([1]; metabolite leucine): 0.0000
Log2(fold change) lysine ([1]; metabolite lysine): 0.0000
Log2(fold change) malate ([1]; metabolite malate): -0.2600
Log2(fold change) maleic acid ([1]; metabolite maleic acid): 0.0000
Log2(fold change) methionine ([1]; metabolite methionine): 0.0000
Log2(fold change) myo-inositol ([1]; metabolite myo-inositol): -0.8500
Log2(fold change) nicotinamide mononucleotide ([1]; metabolite nicotinamide mononucleotide): 0.0000
Log2(fold change) nicotinate ([1]; metabolite nicotinate): -0.0300
Log2(fold change) ornithine ([1]; metabolite ornithine): -0.1100
Log2(fold change) orotate ([1]; metabolite orotate): -0.2100
Log2(fold change) orotidine-5'-phosphate ([1]; metabolite orotidine-5'-phosphate): 0.0000
Log2(fold change) oxaloacetate ([1]; metabolite oxaloacetate): 0.0000
Log2(fold change) p-aminobenzoate ([1]; metabolite p-aminobenzoate): 0.0000
Log2(fold change) p-hydroxybenzoate ([1]; metabolite p-hydroxybenzoate): 0.2000
Log2(fold change) pantothenate ([1]; metabolite pantothenate): 0.0000
Log2(fold change) phenylalanine ([1]; metabolite phenylalanine): 0.0000
Log2(fold change) phenylpyruvate ([1]; metabolite phenylpyruvate): 1.0600
Log2(fold change) phosphoenolpyruvate ([1]; metabolite phosphoenolpyruvate): 0.0800
Log2(fold change) prephenate ([1]; metabolite prephenate): 0.0000
Log2(fold change) proline ([1]; metabolite proline): 0.0000
Log2(fold change) pyridoxine ([1]; metabolite pyridoxine): 0.0000
Log2(fold change) pyruvate ([1]; metabolite pyruvate): 0.0500
Log2(fold change) riboflavin ([1]; metabolite riboflavin): 0.0000
Log2(fold change) ribose ([1]; metabolite ribose): 0.0000
Log2(fold change) ribose-phosphate ([1]; metabolite ribose-phosphate): 0.2500
Log2(fold change) ribulose-5-phosphate ([1]; metabolite ribulose-5-phosphate): 0.0000
Log2(fold change) serine ([1]; metabolite serine): 0.0000
Log2(fold change) sn-glycerol-3-phosphate ([1]; metabolite sn-glycerol-3-phosphate): 0.1700
Log2(fold change) succinate/Methylmalonic acid ([1]; metabolite succinate/Methylmalonic acid): -0.0400
Log2(fold change) succinyl-CoA/methylmalonyl-CoA ([1]; metabolite succinyl-CoA/methylmalonyl-CoA): 0.0000
Log2(fold change) taurine ([1]; metabolite taurine): 0.0000
Log2(fold change) thiamine ([1]; metabolite thiamine): 0.0000
Log2(fold change) threonine/homoserine ([1]; metabolite threonine/homoserine): 0.0000
Log2(fold change) thymidine ([1]; metabolite thymidine): -0.5100
Log2(fold changes) thymine ([1]; metabolite thymine, log2 fold change): -0.0500
Log2(fold changes) trehalose-6-Phosphate ([1]; metabolite trehalose-6-Phosphate, log2 fold change): 0.0000
Log2(fold changes) tryptophan ([1]; metabolite tryptophan, log2 fold change): 0.0000
Log2(fold changes) tyrosine ([1]; metabolite tyrosine, log2 fold change): 0.0000
Log2(fold changes) uridine ([1]; metabolite uridine, log2 fold change): -0.1000
Ratio lowest IC50 8hr/IC50 72hr ([2]; 3D7-A10): 2.0
overall activity profile (stages on which active) ([2]; 8-h exposures): activity against late trophozoites only
killing in stage specificity assay ([2]; 8-h exposures, survival curves): incomplete killing
IC50 ([2]; 3D7, read-out: Early rings Mean IC50, shift 2): 4820 nM
IC50 ([2]; 3D7, read-out: Early trophozoites Mean IC50, shift 1): 10.2 nM
IC50 ([2]; 3D7, read-out: Early trophozoites Mean IC50, shift 2): 1480 nM
IC50 ([2]; 3D7, read-out: Late rings Mean IC50, shift 2): 1490 nM
IC50 ([2]; 3D7, read-out: Late trophozoites Mean IC50, shift 1): 7.7 nM
IC50 ([2]; 3D7, read-out: Schizonts IC50, shift 2): > 25000 nM
IC50 ([2]; 3D7, read-out: Schizonts Mean IC50, shift 1): 19.2 nM
shape of survival curve ([2]; early trophozoite and schizont stages): biphasic survival curve
Stage of peak activity (Figure 6) ([2]; period when the parasite was most susceptible (lowest IC50^8h)): late trophozoite stages
Peak Activity (Table S1) ([2]; stage(s) with the lowest IC50^8h): Late Trophs
minimum inoculum for resistance [3]: 2 × 10^6 parasites
metabolic signature: increases in the pyrimidine precursors dihydroorotate and N-carbamoyl-L-aspartate (mETC disruption) [4]: observed
IC50 [5]: 3.8 nM
